This is an account of results in the METLIN SMRT retention time set (Domingo-Almenara et al. 2019).

This data set can be described thus: gradient 5% acetonitrile 3 min, to 50% in 2 min, to 85% in 15 min, held 3 min, 100 µL/min. The note with it: column: Zorbax Extend-C18 2.1 x 50 mm; eluents: water / acetonitrile, 0.1% formic acid. The essentials: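 The system's dead and dwell volumes were 40 μL and 900 μL, with a Zorbax Extend-C18 column (2.1 × 50 mm, 1.8 μm) run at 100 μL/min in water and acetonitrile containing 0.1% formic acid each. Pure standards were analyzed in mixtures of ~100 molecules by HPLC–quadrupole time-of-flight mass spectrometry in positive and negative ionization mode. Retention time was assigned from computationally picked, manually inspected adduct peaks.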
Regarding `O=C1COc2ccc(S(=O)(=O)N3CCC(C(=O)NCc4cccs4)CC3)cc2N1`, the RP-LC retention time worked out at 702 s.

As to `COc1cc(C(=O)N2CCC3(CC2)N=C(c2ccc(Cl)cc2)C(=O)N3)cc(OC)c1OC`, the RP-LC retention time was 812 s.

`Cc1cn(C)c(CC(=O)NCc2ccco2)c1C(=O)O` gave an RP-LC retention time of 671 s.

`Cc1ccccc1CNC(=O)C1(C)CCN(S(=O)(=O)c2ccc(C3CCCCC3)cc2)CC1` returned an RP-LC retention time of 1310 s.

Take `COc1ccc(NC(=O)Cn2nc3c4sc(N(C)C)nc4ncn3c2=O)cc1`: the RP-LC retention time was 1410 s.

Compound `Cc1nc2cc(N3CCC(C(=O)NCc4ccc5c(c4)OCO5)CC3)cnc2nc1C` came in with an RP-LC retention time of 699 s.

With `CCN(CC)S(=O)(=O)c1ccc2c(c1)nnn2CCC(=O)N1CCN(c2ccccn2)CC1`, the RP-LC retention time is 616 s.

Compound `O=C(c1ccc(F)c(Cl)c1)N1CCN=C1N1CCCCC1` registered an RP-LC retention time of 673 s.

The compound `COCCOc1ccc(C(=O)N2CCNC(=O)C2CC(=O)OC2CCCCC2)cc1` (centres undefined) had an RP-LC retention time of 720 s.

The compound `O=C(O)C1CCN(c2nc3ccc(-c4cncnc4)nc3s2)CC1` yielded an RP-LC retention time of 674 s.

`CCCN1C(=O)c2c(C(=O)NCCc3ccc(C)cc3)ncn2CC1(C)C(=O)NCCC(C)C` (centres undefined): the RP-LC retention time worked out at 907 s.

For `Cc1nn(CC(=O)NCCC(C)C)c(=O)c2c(-n3cccc3)n(-c3ccc(Cl)cc3)nc12`, the RP-LC retention time turned out to be 1030 s.

With `CCn1cc(-c2nc(C)c(C(=O)NCc3ccncc3)s2)c2cccnc21`, the RP-LC retention time came out at 616 s.

`CCc1ccc(OCc2nc(CCN(C)C(=O)c3cccs3)no2)cc1` came in with an RP-LC retention time of 924 s.

`Cc1cccc(-c2nc(-c3ccc4c(c3)oc(=O)n4C)no2)c1` had an RP-LC retention time of 1130 s.

For the compound `COc1cc2c(cc1OC)C1C(C(=O)Nc3ccc4c(c3)OCO4)c3ccccc3C(=O)N1CC2` (centres undefined), the RP-LC retention time stood at 779 s.

In the case of `CN(C)CC1(O)CCC2(CCN(C(=O)c3cccn3C)CC2)CC1`, the RP-LC retention time stood at 577 s.

For the compound `COc1cccc(-c2c(C(=O)O)nnn2-c2ccc3c(c2)OCCO3)c1`, the RP-LC retention time came out at 744 s.

The compound `CCOCN(C(=O)Cn1c(COC)nc2ccccc21)c1c(C)cccc1CC` had an RP-LC retention time of 874 s.

`Cc1ccc(-n2c(C)c(C)c3c(=O)n(CC(=O)N(C)Cc4ccco4)cnc32)cc1` registered an RP-LC retention time of 907 s.

As to `C[C@H](NC(=O)C1CCN(S(=O)(=O)c2ccccc2)CC1)C(=O)O`, the RP-LC retention time amounted to 643 s.

The compound `COc1cc(NC(=O)NCCc2nc3cccnc3n2C2CCCCC2)cc(OC)c1` showed an RP-LC retention time of 751 s.

`CCn1c(SCC(=O)Nc2nc(-c3ccccc3)cs2)nnc1-c1cc2ccccc2o1`: the RP-LC retention time worked out at 1070 s.

Turning to `COC(=O)c1ccc2c(C(C)=O)c[nH]c2c1`, the RP-LC retention time stood at 642 s.

As to `CC(C(=O)N1CCN(c2ccccn2)CC1)n1c(=O)c(C(F)(F)F)nc2ccccc21` (centres undefined), the RP-LC retention time is 696 s.

Turning to `O=C(c1cccc(Br)c1)N1CCN(Cc2noc3ccccc23)CC1`, the RP-LC retention time was determined as 756 s.

As for `CCc1cccc(C)c1N(C(=O)Cn1c(COC)nc2ccccc21)C(C)COC` (centres undefined), the RP-LC retention time was 850 s.

As for `CCN1c2ccccc2C(=O)NC12CCN(C(=O)NCc1ccc(F)cc1)CC2`, the RP-LC retention time worked out at 769 s.

With `Cc1cccc(N2CCN(S(=O)(=O)c3ccc4c(c3)CCCC(=O)N4)CC2)c1C`, the RP-LC retention time amounted to 983 s.

With `C[C@H]1CN(C(=O)Cc2c(F)cccc2Cl)C[C@@H]1c1nc(-c2ccccc2)no1`, the RP-LC retention time amounted to 1100 s.

`Cc1noc2ncnc(N3CCN(c4ccccn4)CC3)c12`: the RP-LC retention time stood at 562 s.

Regarding `CC1=C(c2ccc(F)cc2)S(=O)(=O)N=C1N1CCC(NC(=O)C2CCOC2)CC1` (centres undefined), the RP-LC retention time stood at 664 s.

The compound `CN1C(=O)COc2ccc(-c3csc(NC(=O)C4CC4)n3)cc21` showed an RP-LC retention time of 778 s.

`CCOC(=O)C1CCN(S(=O)(=O)c2cccc(-c3nc(-c4ccccc4)no3)c2)CC1` came in with an RP-LC retention time of 1210 s.

`COc1cccc(NC(=O)C2CCCN(C(=O)C3Sc4ccccc4NC3=O)C2)c1` (centres undefined): the RP-LC retention time turned out to be 786 s.

Consider `COc1cccc(C2Cn3nnc(-c4nc(-c5ccc(Cl)cc5)no4)c3CO2)c1` (centres undefined), for which the RP-LC retention time came to 1220 s.

`Cc1noc(C)c1C1CCCN1C(=O)Cc1ccc(Cl)cc1` (centres undefined) had an RP-LC retention time of 809 s.

`O=C(CCCN1CCN(Cc2ccc(F)cc2)C(=O)C1=O)Nc1ccc(Br)cc1F`: the RP-LC retention time was 814 s.

With `COC1C(=O)N(CC2CC2)C12CCN(S(=O)(=O)Cc1ccccc1)CC2` (centres undefined), the RP-LC retention time was 819 s.

Take `COc1ncc(C(=O)Nc2ccc(F)c(F)c2)c(C)n1`: the RP-LC retention time was 795 s.

Compound `COc1cc(OC)c(NC(=O)N2CCOc3ccccc32)cc1Cl` displayed an RP-LC retention time of 1010 s.

In turn, `CCOC(=O)c1cc(C2CC2)nc2c1c(=O)n(Cc1ccccc1C)c(=O)n2C` registered an RP-LC retention time of 1240 s.

Compound `O=C(NCCc1ccncc1)C1CC(=O)N(c2n[nH]c3cc(Br)ccc23)C1` (centres undefined) had an RP-LC retention time of 601 s.

Regarding `CN(C)c1ccc(CNC(=O)C2CCN(c3cncnc3N3CCCC3)CC2)cc1`, the RP-LC retention time was determined as 555 s.

`CCc1nc(-c2csc(S(=O)(=O)N3CCCC(C(=O)Nc4c(C)cc(C)cc4C)C3)c2)no1` (centres undefined) registered an RP-LC retention time of 1210 s.

`O=C1COc2ccc(S(=O)(=O)N3CCC(C(=O)NCCc4ccccc4)CC3)cc2N1`: the RP-LC retention time came to 740 s.

Consider `Cc1ccc(NC(=O)Cn2cnc3c(sc4nc(-c5ccccc5)ccc43)c2=O)cc1`, for which the RP-LC retention time amounted to 859 s.

Compound `CCOc1ccc(NC(=O)N(C)Cc2nc3ccccc3c(=O)n2CCOC)cc1` registered an RP-LC retention time of 811 s.

Compound `CCOc1ccc(N(CC)C(=O)c2nc(C)n(C3CCN(S(C)(=O)=O)CC3)c2C)cc1` showed an RP-LC retention time of 640 s.

`Cc1ccc(C)c(NC(=O)Cn2c(C)nc3onc(C)c3c2=O)c1` registered an RP-LC retention time of 800 s.

Compound `COC(=O)Nc1nc(CC(=O)NCc2ccccc2Cl)cs1` had an RP-LC retention time of 667 s.

`O=C(CN1CCC2(CC1)N=C(c1ccc(Br)cc1)C(=O)N2)Nc1ccccc1`: the RP-LC retention time came out at 825 s.

As to `COC(=O)CCSCC(=O)Nc1ccc(C)cc1C`, the RP-LC retention time was found to be 742 s.

As to `CCOc1ccccc1NC(=O)Nc1cccc(-c2ccc(N3CCOCC3)nn2)c1`, the RP-LC retention time is 670 s.

Compound `CCOC(=O)c1cc(S(=O)(=O)N2CCCC2C(=O)Nc2cccc(C(F)(F)F)c2)cn1C` (centres undefined) had an RP-LC retention time of 1050 s.

`O=C(Nc1nc(-c2ccccc2)cs1)c1c(-c2ccc(F)cc2)nc2n1CCS2(=O)=O` had an RP-LC retention time of 1020 s.

`COc1ccc(N2CCN(c3nc(C(=O)NCC4CCCO4)cs3)CC2)cc1` (centres undefined) came in with an RP-LC retention time of 821 s.

Compound `CCOc1cc(=O)n2c(c1C(=O)OCc1ccc(C)cc1)CCCCC2` registered an RP-LC retention time of 1010 s.

With `Cc1ccc2c(c1)N(S(C)(=O)=O)CCC(C(=O)Nc1cccc(F)c1)O2` (centres undefined), the RP-LC retention time was 973 s.

For the compound `O=C(CSc1nnc(CNC(=O)c2ccc(F)cc2)o1)NCc1ccc2c(c1)OCO2`, the RP-LC retention time was 672 s.

Take `NS(=O)(=O)c1ccc(CCNC(=O)c2n[nH]c3ccccc23)cc1`: the RP-LC retention time worked out at 612 s.

`Cc1ccc(CNC(=O)Cn2c(C)cc(-c3nnc(C4CCC4)o3)c2C)cc1`: the RP-LC retention time is 903 s.

`Cn1c(=O)cc(SCC(=O)N2CCN(c3ccccn3)CC2)c2ccc(Cl)cc21` returned an RP-LC retention time of 639 s.

Compound `COC(=O)c1cccc(-c2nc(C3CC(=O)N(c4ccc(Cl)cc4)C3)no2)c1` (centres undefined) yielded an RP-LC retention time of 1030 s.

Turning to `CCc1ccccc1NC(=O)N1CC=C(c2cn(C(C)C)c3ncccc23)CC1`, the RP-LC retention time was determined as 958 s.

`Cc1nc(CNC(=O)C2CCN(C(=O)NCCc3ccccc3)CC2)cs1` showed an RP-LC retention time of 660 s.

The compound `Cc1nn(-c2ccccc2)c(C)c1S(=O)(=O)N1CCC(C(=O)Nc2cccc(F)c2)CC1` came in with an RP-LC retention time of 986 s.

With `CCC(=O)N1CCc2cc(N3CC(C(=O)Nc4ccccc4CC)CC3=O)ccc21` (centres undefined), the RP-LC retention time was 750 s.

The compound `Cc1ccc(CNC(=O)N2CC(n3cc(COc4ccc(F)cc4)nn3)C2)cc1` showed an RP-LC retention time of 821 s.

As for `Cc1ccc(CNC(=O)C2(C)CCCN(C(=O)Nc3cccc(F)c3)C2)cc1` (centres undefined), the RP-LC retention time worked out at 967 s.

`CC(C)C(=O)N1CCc2c(c(C(=O)N3CCC(C(=O)NC4CCCCCC4)CC3)nn2C)C1` yielded an RP-LC retention time of 698 s.

`COc1ccccc1-c1noc(Cn2c(=O)n(-c3ccc(C)cc3)c(=O)c3sccc32)n1` came in with an RP-LC retention time of 911 s.

Compound `O=S(=O)(c1ccccc1Br)N1CCc2nc(-c3ccc(F)cc3)ncc2C1` showed an RP-LC retention time of 1130 s.

In turn, `CN(C)CCNC(=O)c1ccc2ccnc(N3CCN(C(=O)c4ccco4)CC3)c2c1` yielded an RP-LC retention time of 557 s.

`COC(=O)c1ccc(NC(=O)Cc2csc(NC(=O)c3ncccn3)n2)cc1` yielded an RP-LC retention time of 642 s.

`CC(C)c1cc(C(=O)NC2CCCCCC2)n[nH]1` displayed an RP-LC retention time of 836 s.

`CC(C(=O)NCCc1cccs1)n1c2ccccc2c2cnn(C)c(=O)c21` (centres undefined): the RP-LC retention time amounted to 855 s.

In the case of `Cc1cccc(-c2noc(-c3ccc(=O)n(Cc4cccnc4)c3)n2)c1`, the RP-LC retention time came to 747 s.

Take `CC(=O)N1CCc2cc(N3CC(C(=O)NC(C)C)CC3=O)ccc21` (centres undefined): the RP-LC retention time is 613 s.
